Measured values: patent publication US12577227B2, “WDR5 inhibitors and modulators” (Vanderbilt University, priority 2019, dated 2026)

system: MV4:11 human cancer cell lines; test: Cellular viability / anti-proliferative activity (CellTiter-Glo); type: cell-based; settings: MV4-11, 120 h, MV-4-11 cells, 5 day protocol, mean of minimum two replicates, read-out: GI50 on cellular proliferation of MV4:11 human cancer cell lines
Summary of the method: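 MV-4-11 cells in IMDM/10% FBS, 200 cells per well, exposed 5 days to 22 two-fold dilutions from 30 μM (0.3% DMSO final). Viability read by CellTiter-Glo luminescence; GI50 from sigmoidal dose-response, mean of at least two replicates.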

GI50 [nM] | Structure (SMILES)
11 | Cc1ccnc(CN2CCOc3c(cc(Cn4ccn(C)c4=N)cc3-c3ccc(F)cc3C)C2=O)c1 [Example 11, 9-(4-Fluoro-2-methylphenyl)-7-((2-imino-3-methyl-2,3-dihydro-1H-imidazol-1-yl)methyl)-4-((4-methylpyridin-2-yl)methyl)-3,4-dihydrobenzo[f][1,4]oxazepin-5(2H)-one]
19 | COc1cc(CN2CCOc3c(cc(Cn4ccn(C)c4=N)cc3-c3ccc(F)cc3C)C2=O)cc(OC)c1 [Example 3, 4-(3,5-Dimethoxybenzyl)-9-(4-fluoro-2-methylphenyl)-7-((2-imino-3-methyl-2,3-dihydro-1H-imidazol-1-yl)methyl)-3,4-dihydrobenzo[f][1,4]oxazepin-5(2H)-one]
> 940 | COc1cc(Cn2cnc3c(-c4ccc(F)cc4C)cc(Cc4c[nH]c5ccccc45)cc3c2=O)cc(OC)c1 [Example 2, 6-((1H-Indol-3-yl)methyl)-3-(3,5-dimethoxybenzyl)-8-(4-fluoro-2-methylphenyl)quinazolin-4(3H)-one]

The remaining lines, values behind:

Structure (SMILES) | GI50 [nM]
COc1ccnc([C@H](C)N2CCOc3c(cc(Cn4ccnc4C)cc3-c3cn(C)nc3C(F)(F)F)C2=O)c1 [Example 47, (S)-4-(1-(4-Methoxypyridin-2-yl)ethyl)-7-((2-methyl-1H-imidazol-1-yl)methyl)-9-(1-methyl-3-(trifluoromethyl)-1H-pyrazol-4-yl)-3,4-dihydrobenzo[f][1,4]oxazepin-5(2H)-one] | 31
CCc1nccn1Cc1cc2c(c(-c3cn(CC)nc3C(F)(F)F)c1)OCCN([C@H](c1cc(OC)ccn1)C1CC1)C2=O [Example 61, (S)-4-(Cyclopropyl(4-methoxypyridin-2-yl)methyl)-7-((2-ethyl-1H-imidazol-1-yl)methyl)-9-(1-ethyl-3-(trifluoromethyl)-1H-pyrazol-4-yl)-3,4-dihydrobenzo[f][1,4]oxazepin-5(2H)-one] | 158
Cc1cc(C)nc(CN2CCOc3c(cc(Cn4ccnc4C)cc3-c3ccccc3C)C2=O)c1 [Example 45, 4-((4,6-Dimethylpyridin-2-yl)methyl)-7-((2-methyl-1H-imidazol-1-yl)methyl)-9-(o-tolyl)-3,4-dihydrobenzo[f][1,4]oxazepin-5(2H)-one] | 157
